# Read-outs that look alike come from different tables or passages of the source.
# What was measured:
# [1] = system: NFF, neonatal foreskin fibroblasts; test: Cell survival assay (clonogenic survival, SRB), normal cells; type: cell-based, human; settings: SRB
# Experimental: (§1) The cytotoxicities of the compounds of the invention were determined by clonogenic survival of human cancer cells (MM96L, melanoma) and human normal cells (NFF, neonatal foreskin fibroblasts). Cells were incubated with the compounds at various concentrations of compound (0.01-10 μg/mL) for 24 hours, washed, and then grown for a further four days in the absence of hydroxamic acid before determining cell survival by cell count. The final readout involved staining with sulforhodamine B (SRB), a cost-effective method amenable to automation and high throughput analysis. At the technical level, “cell sensitivity” is often inferred from short term (1-2 day) observations such as apoptosis, which may not be a satisfactory model of clonogenic survival.
# (§2) Cell Lines and Culture Medium. All cell lines used in this study have been described previously (Parsons et al., 1986; Todaro et al., 1980; Glenn et al., 2004). All cell lines were cultured in 10% heat-inactivated foetal calf serum (CSL, Australia) in RPMI 1640 medium supplemented with 100 U/mL penicillin, 100 μg/mL streptomycin, and 3 mM HEPES at 5% CO2, 99% humidity at 37° C. Primary human fibroblasts were obtained from neonatal foreskins and cultured in the above medium. Routine mycoplasma tests were performed using Hoechst stain^i and were always negative.
# (§3) Cell Survival Assay. Cells were plated into 96-well microtitre plates at 5×10^3 cells/well, and allowed to adhere overnight. Test compounds were added to culture medium at the indicated concentrations, and plates incubated in the above conditions for 24 hours. Following this incubation period, compounds and media were removed, and replaced with fresh culture medium. Cells were then grown for a further 72 hours before assay using sulforhodamine B (SRB; Sigma, St. Louis, Mo.) as previously described. Briefly, the culture medium was removed from the 96-well microtitre plates and the plates washed twice with phosphate buffered saline (PBS), before the cells were fixed with methylated spirits for 15 minutes. The plates were then rinsed with tap water and the fixed cells stained with 50 μL/well of SRB solution (0.4% sulforhodamine B (w/v) in 1% (v/v) acetic acid) over a period of 1 hour. The SRB solution was then removed from the wells and the plates rapidly washed two times with 1% (v/v) acetic acid. Protein bound dye was then solubilised with the addition of 100 μL of 10 mM unbuffered Tris, and incubated for 15 min at 25° C. Plates were then read at 564 nm on a VERSA max tunable microplate reader (Molecular Devices, Sunnyvale, Calif.).
# [2] = system: MM96L melanoma cells; test: Cell survival assay (clonogenic survival, SRB); type: cell-based, human; settings: for SI (Selectivity Index = IC50 (NFF)/IC50 (MM96L)): NFF vs MM96L
# Experimental: as §1, §2, §3
# [3] = Homo sapiens, Fibroblast, NFF normal fibroblasts, 24 h with compound, further 72 h growth, read-out: IC50 (uM) NFF
# [4] = Homo sapiens, MM96L, MM96L melanoma, 24 h with compound, further 72 h growth, SRB, read-out: IC50 (uM) MM96L
# [5] = Homo sapiens, Fibroblast, 24 h, Table 6, 24 hours with compound, further growth, read-out: IC50 (μM) NFF
# [6] = Homo sapiens, MM96L, 24 h, Table 6, 24 hours with compound, further growth, SRB, read-out: IC50 (μM) MM96L
# [7] = Table 6, IC50 (NFF)/IC50 (MM96L)
# [8] = Table 5, 24 hours with compound, further growth, read-out: IC50 NFF
# [9] = Table 5, 24 hours with compound, further growth, SRB, read-out: IC50 MM96L
# [10] = Table 5, Selectivity Index = IC50 (NFF)/IC50 (MM96L)
# [11] = Table 8, 24 hours with compound, further growth, read-out: IC50 (μM) NFF
# [12] = Table 8, 24 hours with compound, further growth, SRB, read-out: IC50 (μM) MM96
# [13] = Table 8, IC50 (NFF)/IC50 (MM96L)
smiles,measurement,setting,value
O=C(/C=C/c1ccccc1)N[C@@H](CSCCCC(=O)NO)C(=O)Nc1cccnc1 [Example 98],IC50,"[1]; Homo sapiens, Fibroblast, 24 h, Table 7, 24 hours with compound, further growth, read-out: IC50 (μM) NFF",6.4 ± 0.8 µM
same,IC50,"[2]; Homo sapiens, MM96L, 24 h, Table 7, 24 hours with compound, further growth, SRB, read-out: IC50 (μM) MM96L",1.2 ± 0.3 µM
same,Selectivity,"[2]; Table 7, IC50 (NFF)/IC50 (MM96L)",5.2
O=C(CCCCC[C@H](NC(=O)Cc1c[nH]c2ccccc12)C(=O)NCc1ccccc1)NO [Example 162],IC50,[1]; [3],> 2.22 µM
same,IC50,[2]; [4],0.332 µM
same,IC50,"[2]; Homo sapiens, MM96L, most preferred compounds, exemplary examples, read-out: potency of IC50 against the MM96 melanoma cells",≤ 0.5 µM
same,SI (Selectivity Index = IC50 (NFF)/IC50 (MM96L)),[2],>7
CN(C)c1ccc(C(=O)N[C@@H](CSCCCC(=O)NO)C(=O)Nc2ccc3cc4ccccc4cc3c2)cc1 [Example 72],IC50,[1]; [5],1.14 ± 0.06 µM
same,IC50,[2]; [6],0.55 ± 0.07 µM
same,Selectivity,[2]; [7],2.1
O=C(CCCSC[C@H](NC(=O)CCc1ccccc1)C(=O)NCc1ccccc1)NO [Example 46],IC50,[1]; [8],21 ± 3 µM
same,IC50,[2]; [9],7.4 ± 0.5 µM
same,Selectivity,[2]; [10],2.9
O=C(CCCSC[C@H](NC(=O)c1ccco1)C(=O)NCc1ccccc1)NO [Example 34],IC50,[1]; [8],22 ± 1 µM
same,IC50,[2]; [9],7.2 ± 0.2 µM
same,Selectivity,[2]; [10],3.1
CN(C)c1ccc(C(=O)N[C@@H](CSCCCC(=O)NO)C(=O)Nc2cccc3cccnc23)cc1 [Example 68],IC50,[1]; [5],3 ± 0.3 µM
same,IC50,[2]; [6],0.61 ± 0.08 µM
same,Selectivity,[2]; [7],5.0
O=C(/C=C/c1ccccc1)N[C@@H](CCCCCC(=O)NO)C(=O)NCc1ccccc1 [Example 138],IC50,"[1]; NFF normal fibroblasts, 24 h with compound, further 72 h growth, read-out: IC50 (uM) NFF",1.15 µM
same,IC50,"[2]; MM96L melanoma, 24 h with compound, further 72 h growth, SRB, read-out: IC50 (uM) MM96L",0.252 µM
same,SI (Selectivity Index = IC50 (NFF)/IC50 (MM96L)),[2],4.5
CC(C)CCC(=O)N[C@@H](CSCCCC(=O)NO)C(=O)NCc1ccccc1 [Example 50],IC50,[1]; [8],25 ± 4 µM
same,IC50,[2]; [9],7 ± 2 µM
same,Selectivity,[2]; [10],3.6
O=C(CCCSC[C@H](NC(=O)c1ccc(-c2ccccc2)cc1)C(=O)NCc1ccccc1)NO [Example 25],IC50,[1]; [8],2.8 ± 0.2 µM
same,IC50,[2]; [9],0.9 ± 0.1 µM
same,Selectivity,[2]; [10],3.1
O=C(CCCCC[C@H](NC(=O)c1cc2c(Br)cccc2[nH]1)C(=O)NCc1ccccc1)NO [Example 165],IC50,[1]; [3],1.94 µM
same,IC50,[2]; [4],0.485 µM
same,SI (Selectivity Index = IC50 (NFF)/IC50 (MM96L)),[2],4.0
O=C(CCCSC[C@H](NC(=O)c1cc2ccccc2cc1O)C(=O)NCc1ccccc1)NO [Example 39],IC50,[1]; [8],> 100 µM
same,IC50,[2]; [9],13 ± 2 µM
same,Selectivity,[2]; [10],>8
CC(C)CNC(=O)c1ccc(CNC(=O)[C@H](CSCCCC(=O)NO)NC(=O)c2ccc(N(C)C)cc2)cc1 [Example 104],IC50,[1]; [11],8.08 µM
same,IC50,[2]; [12],1.62 µM
same,Selectivity,[2]; [13],5.0
O=C(CCCSC[C@H](NS(=O)(=O)c1ccccc1)C(=O)NCc1ccccc1)NO [Example 58],IC50,[1]; [8],> 100 µM
same,IC50,[2]; [9],< 100 µM
same,Selectivity,[2]; [10],>1
CN(C)c1ccc(C(=O)N[C@@H](CSCCCC(=O)NO)C(=O)NCc2ccccn2)cc1 [Example 82],IC50,[1]; [5],6.5 ± 0.3 µM
same,IC50,[2]; [6],1.2 ± 0.1 µM
same,Selectivity,[2]; [7],5.5
O=C(/C=C/c1c[nH]c2ccccc12)N[C@@H](CCCCCC(=O)NO)C(=O)NCc1ccccc1 [Example 167],IC50,[1]; [3],10.4 µM
same,IC50,[2]; [4],3.24 µM
same,SI (Selectivity Index = IC50 (NFF)/IC50 (MM96L)),[2],3.2
CN(C)c1ccc(C(=O)N[C@@H](CSCCCC(=O)NO)C(=O)NCc2ccc(C(=O)Nc3cccc4c3CCCC4)cc2)cc1 [Example 118],IC50,[1]; [11],3.78 µM
same,IC50,[2]; [12],1.17 µM
same,Selectivity,[2]; [13],3.2
O=C(CCCSC[C@H](NC(=O)c1ccc(F)cc1Cl)C(=O)NCc1ccccc1)NO [Example 28],IC50,[1]; [8],> 100 µM
same,IC50,[2]; [9],28 ± 3 µM
same,Selectivity,[2]; [10],>3
O=C(CCCCC[C@H](NC(=O)OCc1ccccc1)C(=O)NCc1ccncc1)NO [Example 159],IC50,[1]; [3],23.3 µM
same,IC50,[2]; [4],4.32 µM
same,SI (Selectivity Index = IC50 (NFF)/IC50 (MM96L)),[2],5.4
COC(=O)c1ccc(NC(=O)[C@H](CSCCCC(=O)NO)NC(=O)c2ccc(N(C)C)cc2)cc1 [Example 63],IC50,[1]; [5],2.8 ± 0.1 µM
same,IC50,[2]; [6],0.96 ± 0.07 µM
